Laboratory results published in PubChem BioAssay AID1963970 (Molecular Pharmacology Branch, DTP, NCI, 2024).

Test system: 931267-113-T-J1-PDC multicell spheroid viability
Experiment: Anticancer human tumor 931267-113-T-J1-PDC patient-derived colon adenocarcinoma cell line growth inhibition [PI3K]
Details: for IC50: curve of first compound; for viability, T/C: stronger effect = lower value
Excerpt: Combinatorial screen of targeted agents with the PI3K inhibitors inavolisib, alpelisib, duvelisib, and copanlisib in multi-cell type tumor spheroids
A high-throughput screen of multi-cell type tumor spheroids was designed to identify active combinations of targeted small molecules and PI3K pathway inhibitors. Complex spheroids include a stromal component modeled by human endothelial cells (HUVEC) and fibroblasts modeled by human mesenchymal stem cells (MSCs). The concentration ranges selected for each drug and investigational agent were based upon clinically achievable concentrations if the clinical Cmax of the agent was known.
Compounds. The drugs and investigational agents: inavolisib (NSC800729), alpelisib (NSC765974), duvelisib (NSC772469), copanlisib (NSC816437), ipatasertib (NSC767898), afuresertib (NSC778305), talazoparib (NSC767125), sapanisertib (NSC764658), selumetinib (NSC741078), tovorafenib (DAY101, NSC766906), vemurafenib (NSC761431), ravoxertinib (NSC781343), sotorasib (NSC818433), MRTX1133 (NSC 836407), abemaciclib (NSC 768073), palbociclib (NSC758247), venetoclax (NSC 766270), SY5609 (NSC837396), enzalutamide (NSC755605), and darolutamide (NSC825331), were obtained from the National Cancer Institute (NCI) Developmental Therapeutics Program Chemical Repository. The FDA-approved anticancer drug set is available from the NCI Developmental Therapeutics Program. […] The stock solutions were prepared in dimethyl sulfoxide (DMSO, Sigma-Aldrich, St. Louis, MO, cat. D2650) at 800-fold the tested concentration and stored at -70 degrees C prior to their use. All drugs and investigational agents were tested over a range starting from a high concentration at or near the clinical Cmax and decreasing in half-log increments. If the clinical Cmax for an agent had not been determined, the highest concentration tested was 10 microM.
Cell Culture. All cells were maintained in an incubator at 37 degrees C and 5% CO2 with 95% humidity. The PDC lines were cultured according to standard operating procedures established by the NCI PDMR (https://pdmr.cancer.gov/sops/default.htm). All PDCs were thawed and cultured in Matrigel-coated flasks prepared with a working solution of 1X Ham's F-12 nutrient mix, without supplementation (Invitrogen, Waltham, MA, cat. 11765054), 100 U/mL penicillin-streptomycin (Invitrogen, cat. 15140122), and 2.5% Matrigel (Corning Inc., Corning, NY, cat. 354248) for the first three passages. The 354836-022-R-J1-PDC, 475296-252-R-J1-PDC, and 997726-040-R-J2-PDC lines were cultured in 6A media, which includes advanced DMEM/F-12 (Thermo Fisher Scientific, cat. 12634028), 10 mM HEPES (Thermo Fisher Scientific, cat. 15630080), 1X GlutaMAX supplement (Thermo Fisher Scientific, cat. 35050061), 0.1 mg/mL primocin (InvivoGen, San Diego, CA, cat. ant-pm-2), 10% defined fetal bovine serum, heat inactivated (HyClone Laboratories Inc., Logan, UT, cat. SH30070.03HI), 50% L-WRN conditioned media (ATCC, cat. CRL-3276), 1.25 mM N-Acetyl-L-cysteine (Sigma-Aldrich, cat. A9165), 10 mM nicotinamide (Sigma-Aldrich, cat. N0636), 1X B-27 supplement (Thermo Fisher Scientific, cat. 17504044), 1X N-2 supplement (Thermo Fisher Scientific, cat. 17502048), and 10 microM Y-27632 dihydrochloride (Tocris Bioscience, Bristol, United Kingdom, cat. 1254). The 624824-186-R-J2-PDC line was cultured in 6C/Colon 1B media, which includes all 6A media components plus 50 ng/mL human EGF recombinant protein (Thermo Fisher Scientific, cat. PHG0311). […]

[1] = second compound 0.0316 µM, first compound 0.0316 µM
[2] = second compound 0.0316 µM, first compound 0.1 µM
[3] = second compound 0.0316 µM, first compound 0.316 µM
[4] = second compound 0.0316 µM, first compound 1 µM
[5] = second compound 0.0316 µM, first compound 3.16 µM
[6] = second compound 0.0316 µM, first compound 10 µM
[7] = second compound 0.1 µM, first compound 0.0316 µM
[8] = second compound 0.1 µM, first compound 0.1 µM
[9] = second compound 0.1 µM, first compound 0.316 µM
[10] = second compound 0.1 µM, first compound 1 µM
[11] = second compound 0.1 µM, first compound 3.16 µM
[12] = second compound 0.1 µM, first compound 10 µM
[13] = second compound 0.316 µM, first compound 0.0316 µM
[14] = second compound 0.316 µM, first compound 0.1 µM
[15] = second compound 0.316 µM, first compound 0.316 µM
[16] = second compound 0.316 µM, first compound 1 µM
[17] = second compound 0.316 µM, first compound 3.16 µM
[18] = second compound 0.316 µM, first compound 10 µM
[19] = second compound 1 µM, first compound 0.0316 µM
[20] = second compound 1 µM, first compound 0.1 µM
[21] = second compound 1 µM, first compound 0.316 µM
[22] = second compound 1 µM, first compound 1 µM
[23] = second compound 1 µM, first compound 3.16 µM
[24] = second compound 1 µM, first compound 10 µM
[25] = second compound 3.16 µM, first compound 0.0316 µM
[26] = second compound 3.16 µM, first compound 0.1 µM
[27] = second compound 3.16 µM, first compound 0.316 µM
[28] = second compound 3.16 µM, first compound 1 µM
[29] = second compound 3.16 µM, first compound 3.16 µM
[30] = second compound 3.16 µM, first compound 10 µM
[31] = second compound 10 µM, first compound 0.0316 µM
[32] = second compound 10 µM, first compound 0.1 µM
[33] = second compound 10 µM, first compound 0.316 µM
[34] = second compound 10 µM, first compound 1 µM
[35] = second compound 10 µM, first compound 3.16 µM
[36] = second compound 10 µM, first compound 10 µM
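Also: viability read 7 days after compound addition.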

With `CC1(C)CCC(CN2CCN(c3ccc(C(=O)NS(=O)(=O)c4ccc(NCC5CCOCC5)c([N+](=O)[O-])c4)c(Oc4cnc5[nH]ccc5c4)c3)CC2)=C(c2ccc(Cl)cc2)C1` + CC(Nc1ccc2c(c1)OCCn1cc(N3C(=O)OCC3C(F)F)nc1-2)C(N)=O the IC50 (second compound 0.00316 µM) was 6.16 µM, the IC50 (second compound 0.01 µM) was 6.33 µM and the IC50 (second compound 0.0316 µM) was 5.56 µM. It also gave an IC50 (second compound 0.1 µM) of 5.22 µM, an IC50 (second compound 0.316 µM) of 4.86 µM and an IC50 (second compound 1 µM) of 4.21 µM. For the same compound, the viability, T/C (second compound 0.00316 µM, first compound 0.0316 µM) was 91.7%, the viability, T/C (second compound 0.00316 µM, first compound 0.1 µM) was 102% and the viability, T/C (second compound 0.00316 µM, first compound 0.316 µM) was 105%. For the same compound, the viability, T/C (second compound 0.00316 µM, first compound 1 µM) was 106%, the viability, T/C (second compound 0.00316 µM, first compound 3.16 µM) was 94.3% and the viability, T/C (second compound 0.00316 µM, first compound 10 µM) was 17.5%. It also gave a viability, T/C (second compound 0.01 µM, first compound 0.0316 µM) of 104%, a viability, T/C (second compound 0.01 µM, first compound 0.1 µM) of 98.5% and a viability, T/C (second compound 0.01 µM, first compound 0.316 µM) of 97.5%. The viability, T/C (second compound 0.01 µM, first compound 1 µM) was 107%, the viability, T/C (second compound 0.01 µM, first compound 3.16 µM) was 96.2% and the viability, T/C (second compound 0.01 µM, first compound 10 µM) was 19.3%. The viability, T/C [1] was 112%, the viability, T/C [2] was 104% and the viability, T/C [3] was 95.8%. The viability, T/C [4] was 91.4%, the viability, T/C [5] was 87.4% and the viability, T/C [6] was 14.5%. The viability, T/C [7] was 94.2%, the viability, T/C [8] was 88.2% and the viability, T/C [9] was 91.5%. For the same compound, the viability, T/C [10] was 97.9%, the viability, T/C [11] was 78.2% and the viability, T/C [12] was 13.7%. For the same compound, the viability, T/C [13] was 81.7%, the viability, T/C [14] was 89% and the viability, T/C [15] was 80.2%. It also gave a viability, T/C [16] of 75.4%, a viability, T/C [17] of 73% and a viability, T/C [18] of 13.6%. It also gave a viability, T/C [19] of 78.5%, a viability, T/C [20] of 77.1% and a viability, T/C [21] of 73.9%. It also gave a viability, T/C [22] of 69.7%, a viability, T/C [23] of 63.3% and a viability, T/C [24] of 14.1%.
Compound `CC(C)NCC(C(=O)N1CCN(c2ncnc3c2C(C)CC3O)CC1)c1ccc(Cl)cc1` (stereo unspecified) + CC(Nc1ncnc2nc[nH]c12)c1cc2cccc(Cl)c2c(=O)n1-c1ccccc1 has an IC50 (second compound 0.0316 µM) greater than 10 µM, an IC50 (second compound 0.1 µM) greater than 10 µM and an IC50 (second compound 0.316 µM) greater than 10 µM. For the same compound, the IC50 (second compound 1 µM) was greater than 10 µM, the IC50 (second compound 3.16 µM) was greater than 10 µM and the IC50 (second compound 10 µM) was greater than 10 µM. For the same compound, the viability, T/C [1] was 97.2%, the viability, T/C [2] was 99.5% and the viability, T/C [3] was 92.1%. The viability, T/C [4] was 101%, the viability, T/C [5] was 97.1% and the viability, T/C [6] was 81.6%. For the same compound, the viability, T/C [7] was 108%, the viability, T/C [8] was 95.6% and the viability, T/C [9] was 100%. The viability, T/C [10] was 98.8%, the viability, T/C [11] was 97.1% and the viability, T/C [12] was 74.7%. The viability, T/C [13] was 108%, the viability, T/C [14] was 107% and the viability, T/C [15] was 106%. For the same compound, the viability, T/C [16] was 94.7%, the viability, T/C [17] was 99.6% and the viability, T/C [18] was 85%. It also gave a viability, T/C [19] of 105%, a viability, T/C [20] of 107% and a viability, T/C [21] of 93%. For the same compound, the viability, T/C [22] was 99.6%, the viability, T/C [23] was 99.1% and the viability, T/C [24] was 80.7%. It also gave a viability, T/C [25] of 103%, a viability, T/C [26] of 100% and a viability, T/C [27] of 89.7%. The viability, T/C [28] was 94.6%, the viability, T/C [29] was 90.9% and the viability, T/C [30] was 71.7%. For the same compound, the viability, T/C [31] was 95.2%, the viability, T/C [32] was 86% and the viability, T/C [33] was 86.8%. For the same compound, the viability, T/C [34] was 87.7%, the viability, T/C [35] was 88.7% and the viability, T/C [36] was 75.1%.
`CNC(=O)c1ccc(N2C(=S)N(c3ccc(C#N)c(C(F)(F)F)c3)C(=O)C2(C)C)cc1F` + CC(Nc1ncnc2nc[nH]c12)c1cc2cccc(Cl)c2c(=O)n1-c1ccccc1 was tested, and the IC50 (second compound 0.0316 µM) was greater than 10 µM, the IC50 (second compound 0.1 µM) was greater than 10 µM and the IC50 (second compound 0.316 µM) was greater than 10 µM. For the same compound, the IC50 (second compound 1 µM) was greater than 10 µM, the IC50 (second compound 3.16 µM) was greater than 10 µM and the IC50 (second compound 10 µM) was greater than 10 µM. It also gave a viability, T/C [1] of 107%, a viability, T/C [2] of 96.7% and a viability, T/C [3] of 113%. The viability, T/C [4] was 97.2%, the viability, T/C [5] was 111% and the viability, T/C [6] was 109%. For the same compound, the viability, T/C [7] was 108%, the viability, T/C [8] was 101% and the viability, T/C [9] was 104%. For the same compound, the viability, T/C [10] was 104%, the viability, T/C [11] was 101% and the viability, T/C [12] was 103%. The viability, T/C [13] was 103%, the viability, T/C [14] was 104% and the viability, T/C [15] was 100%. For the same compound, the viability, T/C [16] was 107%, the viability, T/C [17] was 115% and the viability, T/C [18] was 103%. It also gave a viability, T/C [19] of 102%, a viability, T/C [20] of 103% and a viability, T/C [21] of 96.6%. For the same compound, the viability, T/C [22] was 102%, the viability, T/C [23] was 117% and the viability, T/C [24] was 109%. It also gave a viability, T/C [25] of 100%, a viability, T/C [26] of 98.9% and a viability, T/C [27] of 92.4%. The viability, T/C [28] was 103%, the viability, T/C [29] was 96.5% and the viability, T/C [30] was 104%. It also gave a viability, T/C [31] of 99%, a viability, T/C [32] of 97.9% and a viability, T/C [33] of 93.9%. The viability, T/C [34] was 96.1%, the viability, T/C [35] was 102% and the viability, T/C [36] was 84.4%.
